Laboratory results reported in PMC11671526, “β-caryophyllene sensitizes hepatocellular carcinoma cells to chemotherapeutics and inhibits cell malignancy through targeting MAPK signaling pathway” (Frontiers in Pharmacology, 2024).

Test system: HepG2 cells
Experiment: RNA-seq transcriptome analysis of differentially expressed genes
Format: cell-based, human
Settings: BCP vs control HepG2
Method: The quality and concentration of RNA were examined by MOPS RNA electrophoresis and Eppendorf BioSpectrometer. The transcriptome analysis was performed by BGI-Wuhan China. The RNA-seq dataset of this study is accessible in the Gene Expression Omnibus (GEO) with an access number of GSE276099. The sequence library for each sample was prepared using the BGISEQ-500 platform with a 50-bp single-end (SE50) format. […]2.2.1) was used to align the clean reads to the reference genome and alignment of the clean reads to the reference genes was carried out using Bowtie2 (v2.4.5) ([Langmead and Salzberg, 2012]; [Kim et al., 2015]). Gene expression levels were calculated by RSEM (v1.3.1) ([Li and Dewey, 2011]). Analysis of differential gene expression was performed using edgeR in the Bioconductor software package ([Robinson et al., 2010]). Using a standard protocol, the RNA samples were also examined by reverse transcription and quantitative polymerase chain reaction (RT-qPCR). In brief, for reverse transcription, total RNA (1 μg) and gDNA wiper Mix were incubated at 42°C for 2 min. The samples were immediately incubated with a master mix containing 10 pmol/μL of poly (dT) primers at 37°C for 15 min and 85°C for 5 s. To detect the expression of specific genes by qPCR analysis, gene-specific primers (shown in Supplementary Table S1) were mixed with the ChamQ Universal SYBER qPCR Master Mix and the reaction was conducted using the Roche Lightcycler 480. The GAPDH value was used to normalize the results of each gene. The RNA-seq data of BCP-treated HepG2 cells were screened for DEGs. Gene symbols were turned into Enterz ID using the org.Hs.eg.db Bio-conductor R package. The cluster profiler (v4.6.2) package was used to perform the Kyoto Encyclopedia of Genes and Genomes (KEGG) and Gene Ontology (GO) enrichment analyses ([Wu et al., 2021]). Following the Transcript per million (TPM) data of the dataset, the line chart, and heatmap were plotted using ggplot2 and pheatmap R packages, respectively.

C=C1CC/C=C(\C)CC[C@@H]2[C@@H]1CC2(C)C [BCP, β-caryophyllene]
change EGLN3 (gene EGLN3, DEG direction): Down | logFC EHF (gene EHF, RNA-seq): -2.096 | change EHF (gene EHF, DEG direction): Down | logFC EPHX1 (gene EPHX1, RNA-seq): -0.6153 | change EPHX1 (gene EPHX1, DEG direction): Down | logFC ETNPPL (gene ETNPPL, RNA-seq): -2.349 | change ETNPPL (gene ETNPPL, DEG direction): Down | logFC EVA1A (gene EVA1A, RNA-seq): -3.085 | change EVA1A (gene EVA1A, DEG direction): Down | logFC F2RL1 (gene F2RL1, RNA-seq): -0.7544 | change F2RL1 (gene F2RL1, DEG direction): Down | logFC FAH (gene FAH, RNA-seq): 0.7875 | change FAH (gene FAH, DEG direction): Up | logFC FAM13C (gene FAM13C, RNA-seq): 0.699 | change FAM13C (gene FAM13C, DEG direction): Up | logFC FAM72C (gene FAM72C, RNA-seq): 1.971 | change FAM72C (gene FAM72C, DEG direction): Up | logFC FBXO2 (gene FBXO2, RNA-seq): -0.7473 | change FBXO2 (gene FBXO2, DEG direction): Down | logFC FBXO27 (gene FBXO27, RNA-seq): -1.235 | change FBXO27 (gene FBXO27, DEG direction): Down | logFC FBXO44 (gene FBXO44, RNA-seq): -0.6394 | change FBXO44 (gene FBXO44, DEG direction): Down | logFC FGFBP1 (gene FGFBP1, RNA-seq): -1.07 | change FGFBP1 (gene FGFBP1, DEG direction): Down | logFC FRMD3 (gene FRMD3, RNA-seq): -1.073 | change FRMD3 (gene FRMD3, DEG direction): Down | logFC FZD4 (gene FZD4, RNA-seq): -0.6196 | change FZD4 (gene FZD4, DEG direction): Down | logFC GALNT13 (gene GALNT13, RNA-seq): 1.877 | change GALNT13 (gene GALNT13, DEG direction): Up | logFC GALNTL6 (gene GALNTL6, RNA-seq): 1.303 | change GALNTL6 (gene GALNTL6, DEG direction): Up | logFC GBP2 (gene GBP2, RNA-seq): -1.229 | change GBP2 (gene GBP2, DEG direction): Down | logFC GIPR (gene GIPR, RNA-seq): -0.7811 | change GIPR (gene GIPR, DEG direction): Down | logFC GJB5 (gene GJB5, RNA-seq): -0.706 | change GJB5 (gene GJB5, DEG direction): Down | logFC GLIS3 (gene GLIS3, RNA-seq): 0.614 | change GLIS3 (gene GLIS3, DEG direction): Up | logFC GNAZ (gene GNAZ, RNA-seq): -0.722 | change GNAZ (gene GNAZ, DEG direction): Down | logFC GOLGA6L10 (gene GOLGA6L10, RNA-seq): 2.939 | change GOLGA6L10 (gene GOLGA6L10, DEG direction): Up | logFC GPER1 (gene GPER1, RNA-seq): -0.7995 | change GPER1 (gene GPER1, DEG direction): Down | logFC GPNMB (gene GPNMB, RNA-seq): 0.8482 | change GPNMB (gene GPNMB, DEG direction): Up | logFC GSDME (gene GSDME, RNA-seq): 0.7468 | change GSDME (gene GSDME, DEG direction): Up | logFC H1-2 (gene H1-2, RNA-seq): -0.7028 | change H1-2 (gene H1-2, DEG direction): Down | logFC H2AC6 (gene H2AC6, RNA-seq): -0.6896 | change H2AC6 (gene H2AC6, DEG direction): Down | logFC H2AC18 (gene H2AC18, RNA-seq): -0.6059 | change H2AC18 (gene H2AC18, DEG direction): Down | logFC H2BC5 (gene H2BC5, RNA-seq): -0.8919 | change H2BC5 (gene H2BC5, DEG direction): Down | logFC H2BC11 (gene H2BC11, RNA-seq): -0.8769 | change H2BC11 (gene H2BC11, DEG direction): Down | logFC H2BC12 (gene H2BC12, RNA-seq): -0.7141 | change H2BC12 (gene H2BC12, DEG direction): Down | logFC H2BC21 (gene H2BC21, RNA-seq): -0.7522 | change H2BC21 (gene H2BC21, DEG direction): Down | logFC H3C14 (gene H3C14, RNA-seq): -8.816 | change H3C14 (gene H3C14, DEG direction): Down | logFC H3C15 (gene H3C15, RNA-seq): 8.416 | change H3C15 (gene H3C15, DEG direction): Up | logFC HHLA2 (gene HHLA2, RNA-seq): -1.815 | change HHLA2 (gene HHLA2, DEG direction): Down | logFC HIC1 (gene HIC1, RNA-seq): -1.286 | change HIC1 (gene HIC1, DEG direction): Down | logFC HID1 (gene HID1, RNA-seq): -3.326 | change HID1 (gene HID1, DEG direction): Down | logFC HJURP (gene HJURP, RNA-seq): 0.601 | change HJURP (gene HJURP, DEG direction): Up | logFC HK1 (gene HK1, RNA-seq): -0.5879 | change HK1 (gene HK1, DEG direction): Down | logFC HMG20B (gene HMG20B, RNA-seq): 0.778 | change HMG20B (gene HMG20B, DEG direction): Up | logFC HMMR (gene HMMR, RNA-seq): 0.8153 | change HMMR (gene HMMR, DEG direction): Up | logFC HPDL (gene HPDL, RNA-seq): -0.6564 | change HPDL (gene HPDL, DEG direction): Down | logFC HSPA5 (gene HSPA5, RNA-seq): 0.6968 | change HSPA5 (gene HSPA5, DEG direction): Up | logFC IFI35 (gene IFI35, RNA-seq): 0.5837 | change IFI35 (gene IFI35, DEG direction): Up | logFC IFITM1 (gene IFITM1, RNA-seq): -1.457 | change IFITM1 (gene IFITM1, DEG direction): Down | logFC IL34 (gene IL34, RNA-seq): -0.7177 | change IL34 (gene IL34, DEG direction): Down | logFC IQGAP3 (gene IQGAP3, RNA-seq): 0.8425 | change IQGAP3 (gene IQGAP3, DEG direction): Up | logFC ITPR1 (gene ITPR1, RNA-seq): 0.8272 | change ITPR1 (gene ITPR1, DEG direction): Up | logFC KCNH3 (gene KCNH3, RNA-seq): -0.6893 | change KCNH3 (gene KCNH3, DEG direction): Down | logFC KCNJ18 (gene KCNJ18, RNA-seq): 0.8616 | change KCNJ18 (gene KCNJ18, DEG direction): Up | logFC KCNK3 (gene KCNK3, RNA-seq): -0.6699 | change KCNK3 (gene KCNK3, DEG direction): Down | logFC KIAA1614 (gene KIAA1614, RNA-seq): 0.6603 | change KIAA1614 (gene KIAA1614, DEG direction): Up | logFC KLHDC7B (gene KLHDC7B, RNA-seq): 0.8443 | change KLHDC7B (gene KLHDC7B, DEG direction): Up | logFC KLRG1 (gene KLRG1, RNA-seq): -1.335 | change KLRG1 (gene KLRG1, DEG direction): Down | logFC LCK (gene LCK, RNA-seq): -3.081 | change LCK (gene LCK, DEG direction): Down | logFC LFNG (gene LFNG, RNA-seq): -0.7084 | change LFNG (gene LFNG, DEG direction): Down | logFC LHFPL2 (gene LHFPL2, RNA-seq): -0.5801 | change LHFPL2 (gene LHFPL2, DEG direction): Down | logFC LIMS3 (gene LIMS3, RNA-seq): 8.319 | change LIMS3 (gene LIMS3, DEG direction): Up
